# Experimental data taken from ChEMBL document CHEMBL1139907, “Further studies on hepatitis C virus NS5B RNA-dependent RNA polymerase inhibitors toward improved replicon cell activities: benzimidazole and structurally related compounds bearing the 2-morpholinophenyl moiety” (Bioorg Med Chem Lett, 2007).
# System: Hepatitis C virus
# Test: Antiviral activity against HCV in Huh-5-2 cells by replicon assay
# Type: functional, organism-based, Hepacivirus hominis
# Details: not given
row,EC50 [nM],Structure (SMILES)
1,60,O=C(O)c1ccc2c(C3CCCCC3)c3n(c2c1)CCOc1cc(OCc2cc(N4CCCC4=O)ccc2-c2ccc(Cl)cc2)ccc1-3
2,580,O=C(O)c1ccc2c(c1)nc(-c1ccc(OCc3cc(N4CCCCC4=O)ccc3N3CCOCC3)cc1F)n2C1CCCCC1
3,1000,O=C(O)c1ccc2c(c1)nc(-c1ccc(OCc3ccccc3N3CCOCC3)cc1F)n2C1CCCCC1
4,7.6,O=C(O)c1ccc2c(C3CCCCC3)c3n(c2c1)CCOc1cc(OCc2cc(N4CCCC4=O)ccc2N2CCOCC2)ccc1-3
5,52,Cn1c(-c2ccc(OCc3cc(N4CCCC4=O)ccc3N3CCOCC3)cc2)c(C2CCCCC2)c2ccc(C(=O)O)cc21
6,1400,O=C(O)c1ccc2c(c1)nc(-c1ccc(OCc3cc(N4CCCC4=O)ccc3N3CCC(O)CC3)cc1F)n2C1CCCCC1
7,910,CC(=O)Nc1ccc(N2CCOCC2)c(COc2ccc(-c3nc4cc(C(=O)O)ccc4n3C3CCCCC3)c(F)c2)c1
8,1200,COCC(=O)N(C)c1ccc(N2CCOCC2)c(COc2ccc(-c3nc4cc(C(=O)O)ccc4n3C3CCCCC3)c(F)c2)c1
9,> 30000,O=C(O)c1ccc2c(c1)nc(-c1ccc(OCc3cc(N4CCCC4=O)ccc3N3CCOCC3=O)cc1F)n2C1CCCCC1
10,950,CC(=O)N1CCN(c2ccc(N3CCCC3=O)cc2COc2ccc(-c3nc4cc(C(=O)O)ccc4n3C3CCCCC3)c(F)c2)CC1
11,1400,COc1ccc(N2CCCC2=O)cc1COc1ccc(-c2nc3cc(C(=O)O)ccc3n2C2CCCCC2)c(F)c1
12,270,CC(=O)N(c1ccc(N2CCOCC2)c(COc2ccc(-c3nc4cc(C(=O)O)ccc4n3C3CCCCC3)c(F)c2)c1)C(C)C

# System: not listed separately
# Test: Cytotoxicity against Huh-5-2 cells
# Type: cell-based
# Details: human
row,Structure (SMILES),CC50 [nM]
1,O=C(O)c1ccc2c(c1)nc(-c1ccc(OCc3cc(N4CCCC4=O)ccc3-c3ccc(Cl)cc3)cc1F)n2C1CCCCC1,> 20000
2,O=C(O)c1ccc2c(C3CCCCC3)c3n(c2c1)CCOc1cc(OCc2cc(N4CCCC4=O)ccc2-c2ccc(Cl)cc2)ccc1-3,> 20000
3,O=C(O)c1ccc2c(c1)nc(-c1ccc(OCc3cc(N4CCCCC4=O)ccc3N3CCOCC3)cc1F)n2C1CCCCC1,> 20000
4,O=C(O)c1ccc2c(c1)nc(-c1ccc(OCc3ccccc3N3CCOCC3)cc1F)n2C1CCCCC1,> 20000
5,O=C(O)c1ccc2c(C3CCCCC3)c3n(c2c1)CCOc1cc(OCc2cc(N4CCCC4=O)ccc2N2CCOCC2)ccc1-3,> 20000
6,Cn1c(-c2ccc(OCc3cc(N4CCCC4=O)ccc3N3CCOCC3)cc2)c(C2CCCCC2)c2ccc(C(=O)O)cc21,> 20000
7,O=C(O)c1ccc2c(c1)nc(-c1ccc(OCc3cc(N4CCCC4=O)ccc3N3CCC(O)CC3)cc1F)n2C1CCCCC1,> 20000
8,CC(=O)Nc1ccc(N2CCOCC2)c(COc2ccc(-c3nc4cc(C(=O)O)ccc4n3C3CCCCC3)c(F)c2)c1,> 20000
9,COCC(=O)N(C)c1ccc(N2CCOCC2)c(COc2ccc(-c3nc4cc(C(=O)O)ccc4n3C3CCCCC3)c(F)c2)c1,> 20000
10,O=C(O)c1ccc2c(c1)nc(-c1ccc(OCc3cc(N4CCCC4=O)ccc3N3CCOCC3=O)cc1F)n2C1CCCCC1,> 20000
11,CC(=O)N1CCN(c2ccc(N3CCCC3=O)cc2COc2ccc(-c3nc4cc(C(=O)O)ccc4n3C3CCCCC3)c(F)c2)CC1,> 20000
12,COc1ccc(N2CCCC2=O)cc1COc1ccc(-c2nc3cc(C(=O)O)ccc3n2C2CCCCC2)c(F)c1,> 20000
13,CC(=O)N(c1ccc(N2CCOCC2)c(COc2ccc(-c3nc4cc(C(=O)O)ccc4n3C3CCCCC3)c(F)c2)c1)C(C)C,> 20000

# System: Hepacivirus hominis
# Test: Ratio of EC50 of HCV to IC50 for HCV NS5B polymerase
# Details: not given
row,Structure (SMILES),Ratio
1,O=C(O)c1ccc2c(c1)nc(-c1ccc(OCc3cc(N4CCCC4=O)ccc3-c3ccc(Cl)cc3)cc1F)n2C1CCCCC1,19
2,O=C(O)c1ccc2c(C3CCCCC3)c3n(c2c1)CCOc1cc(OCc2cc(N4CCCC4=O)ccc2-c2ccc(Cl)cc2)ccc1-3,3.1
3,O=C(O)c1ccc2c(c1)nc(-c1ccc(OCc3cc(N4CCCCC4=O)ccc3N3CCOCC3)cc1F)n2C1CCCCC1,6.4
4,O=C(O)c1ccc2c(c1)nc(-c1ccc(OCc3ccccc3N3CCOCC3)cc1F)n2C1CCCCC1,7.7
5,O=C(O)c1ccc2c(C3CCCCC3)c3n(c2c1)CCOc1cc(OCc2cc(N4CCCC4=O)ccc2N2CCOCC2)ccc1-3,1.1
6,Cn1c(-c2ccc(OCc3cc(N4CCCC4=O)ccc3N3CCOCC3)cc2)c(C2CCCCC2)c2ccc(C(=O)O)cc21,7.2
7,O=C(O)c1ccc2c(c1)nc(-c1ccc(OCc3cc(N4CCCC4=O)ccc3N3CCC(O)CC3)cc1F)n2C1CCCCC1,9.3
8,CC(=O)Nc1ccc(N2CCOCC2)c(COc2ccc(-c3nc4cc(C(=O)O)ccc4n3C3CCCCC3)c(F)c2)c1,13
9,COCC(=O)N(C)c1ccc(N2CCOCC2)c(COc2ccc(-c3nc4cc(C(=O)O)ccc4n3C3CCCCC3)c(F)c2)c1,12
10,O=C(O)c1ccc2c(c1)nc(-c1ccc(OCc3cc(N4CCCC4=O)ccc3N3CCOCC3=O)cc1F)n2C1CCCCC1,> 30
11,CC(=O)N1CCN(c2ccc(N3CCCC3=O)cc2COc2ccc(-c3nc4cc(C(=O)O)ccc4n3C3CCCCC3)c(F)c2)CC1,8.6
12,COc1ccc(N2CCCC2=O)cc1COc1ccc(-c2nc3cc(C(=O)O)ccc3n2C2CCCCC2)c(F)c1,3.4
13,CC(=O)N(c1ccc(N2CCOCC2)c(COc2ccc(-c3nc4cc(C(=O)O)ccc4n3C3CCCCC3)c(F)c2)c1)C(C)C,6.4

# Molecular target: not listed separately
# Test: Inhibition of HCV NS5B polymerase
# Set-up: species or system Hepacivirus hominis
# Details: not given
row,IC50 [nM],Structure (SMILES)
1,19,O=C(O)c1ccc2c(C3CCCCC3)c3n(c2c1)CCOc1cc(OCc2cc(N4CCCC4=O)ccc2-c2ccc(Cl)cc2)ccc1-3
2,90,O=C(O)c1ccc2c(c1)nc(-c1ccc(OCc3cc(N4CCCCC4=O)ccc3N3CCOCC3)cc1F)n2C1CCCCC1
3,130,O=C(O)c1ccc2c(c1)nc(-c1ccc(OCc3ccccc3N3CCOCC3)cc1F)n2C1CCCCC1
4,7.2,O=C(O)c1ccc2c(C3CCCCC3)c3n(c2c1)CCOc1cc(OCc2cc(N4CCCC4=O)ccc2N2CCOCC2)ccc1-3
5,7.2,Cn1c(-c2ccc(OCc3cc(N4CCCC4=O)ccc3N3CCOCC3)cc2)c(C2CCCCC2)c2ccc(C(=O)O)cc21
6,150,O=C(O)c1ccc2c(c1)nc(-c1ccc(OCc3cc(N4CCCC4=O)ccc3N3CCC(O)CC3)cc1F)n2C1CCCCC1
7,70,CC(=O)Nc1ccc(N2CCOCC2)c(COc2ccc(-c3nc4cc(C(=O)O)ccc4n3C3CCCCC3)c(F)c2)c1
8,99,COCC(=O)N(C)c1ccc(N2CCOCC2)c(COc2ccc(-c3nc4cc(C(=O)O)ccc4n3C3CCCCC3)c(F)c2)c1
9,1000,O=C(O)c1ccc2c(c1)nc(-c1ccc(OCc3cc(N4CCCC4=O)ccc3N3CCOCC3=O)cc1F)n2C1CCCCC1
10,110,CC(=O)N1CCN(c2ccc(N3CCCC3=O)cc2COc2ccc(-c3nc4cc(C(=O)O)ccc4n3C3CCCCC3)c(F)c2)CC1
11,410,COc1ccc(N2CCCC2=O)cc1COc1ccc(-c2nc3cc(C(=O)O)ccc3n2C2CCCCC2)c(F)c1
12,42,CC(=O)N(c1ccc(N2CCOCC2)c(COc2ccc(-c3nc4cc(C(=O)O)ccc4n3C3CCCCC3)c(F)c2)c1)C(C)C
